Data set [1] deals with SARS-CoV-2. The experiment in a line: Cell survival following SARS-CoV-2 challenge. The class given is cell-based.
In data set [2] the target is Helicase (NSP13). As to conditions: cited from earlier work.
Data set [3] has as its system wild-type (alpha strain, SARS-CoV-2, USA-WA1/2020) SARS-CoV-2. The experiment in a line: Inhibition of SARS-CoV-2 mediated cell death, wild type (dose response). The class given is cell-based.
Data set [4] deals with Vero cell line.
For data set [5] the following is noted: read-out: Tox CC50, cited from earlier work.
For data set [6], the system named is SARS-CoV-2. Also noted: method as in Ref11. The conditions noted are these: in vivo (Sirian hamster); ref Ref11; cited from earlier work.
The subject of data set [7] is SARS-CoV-2. The conditions noted are these: cited from earlier work.
Where [8] appears, read: Severe acute respiratory syndrome coronavirus 2, Vero, read-out: IC50, dose response anti-viral testing (Figure 4), alpha strain USA-WA1/2020, legend names Vero cells.
Setting [9] is: Severe acute respiratory syndrome coronavirus 2, wild-type (alpha strain, USA-WA1/2020), read-out: IC50 Values For inhibition of SARS-CoV-2 Mediated Cell Death, Wild Type.
Where [10] appears, read: wild-type (alpha strain, USA-WA1/2020), read-out: IC50 Values For inhibition of SARS-CoV-2 Mediated Cell Death, Wild Type.

Read-outs that look alike come from different tables or passages of the source.

Consider 26 compounds from article PMC10049026, “In Silico Binding of 2-Aminocyclobutanones to SARS-CoV-2 Nsp13 Helicase and Demonstration of Antiviral Activity” (International Journal of Molecular Sciences, 2023).

For `Cc1ccc(S(=O)(=O)N[C@H](Cc2ccccc2)C(=O)NC2CCC2=O)cc1` (stereo partly drawn) [Compound 6, (2R)-2-((4-Methylphenyl)sulfonamido)-N-(2-oxocyclobutyl)-3-phenylpropanamide], the “Cell Survival following SARS-CoV-2 Challenge” value in data set [1] (5 µM inhibitor concentration) is listed as 26.6; in data set [1] (50 µM inhibitor concentration) it was 35.9.
`CC(C)=CCc1c(O)cc(O)c2c(=O)cc(-c3ccc(O)cc3)oc12` [licoflavone C]: in data set [2] (Enzyme assay, ref Ref8), the IC50 is 1.34 µM.
Turning to `O=C(N[C@H](Cc1ccccc1)C(=O)NC1CCC1=O)OCc1ccccc1` (stereo partly drawn) [Compound 2, Benzyl ((2R)-1-oxo-1-((2-oxocyclobutyl)amino)-3-phenylpropan-2-yl) carbamate], the results for the IC50 in data set [3] (setting [8]) and in data set [3] (setting [9]) were 20.3 ± 14.4 µM and 6.89 µM, respectively. The “toxicity / growth inhibition of Vero cell line” value (from here on “toxicity / growth inhibition”) in data set [4] is on record as “some inhibitory effect on Vero cell line growth”. Moreover, the figures for the “Cell Survival following SARS-CoV-2 Challenge” value in data set [1] (5 µM inhibitor concentration) and in data set [1] (50 µM inhibitor concentration) were 24.2 and 34.7, respectively. This compound came in with a cell survival in data set [1] (at 5 µM) of 24.2%.
Consider `Cc1ccc(S(=O)(=O)N[C@@H](Cc2ccccc2)C(=O)NC2CCC2=O)cc1` (stereo partly drawn) [Compound 1, (2S)-2-((4-Methylphenyl)sulfonamido)-N-(2-oxocyclobutyl)-3-phenylpropanamide], for which the IC50 in data set [3] (setting [9]) was 15.4 µM. For the same compound, the “Cell Survival following SARS-CoV-2 Challenge” value in data set [1] (5 µM inhibitor concentration) is recorded as 39.3; in data set [1] (50 µM inhibitor concentration), 49.8.
A word on the CC50: it is the concentration at which the toxic effect on the cells reaches its halfway point. As for `CNC(=C[N+](=O)[O-])NCCSCc1ccc(CN(C)C)o1.O=C([O-])CC(O)(CC(=O)[O-])C(=O)[O-].[Bi+3]` [Ranitidine bismuth citrate], the CC50 in data set [5] (ref Ref11) was 3250 µM. The IC50 in data set [2] (In vitro & in vivo, ref Ref11, read-out: Enzyme Assay IC50) is 0.69 µM. In data set [6], the “viral load redn in Animal lungs & nasal turbinate” value is 1 to 1.5 log.
On to `C=C[C@@H]1C[C@]1(NC(=O)[C@@H]1C[C@@H]2CN1C(=O)[C@H](C(C)(C)C)NC(=O)O[C@@H]1C[C@H]1CCCCCc1nc3ccc(OC)cc3nc1O2)C(=O)NS(=O)(=O)C1CC1` [Grazoprevir], for which the IC50 in data set [7] (in vitro assay, ref Ref6, read-out: Antiviral activity IC50) was 1.41 µM.
With `O=C1O[C@H]2[C@@H]3OC(=O)c4cc(O)c(O)c(O)c4-c4c(O)c(O)c5oc(=O)c6c(c(O)c(O)c7oc(=O)c4c5c76)-c4c(cc(O)c(O)c4O)C(=O)OC[C@H]3OC(O)[C@@H]2OC(=O)c2cc(O)c(O)c(O)c2-c2c1cc(O)c(O)c2O` (mixture of isomers) [Punicalagin], the CC50 in data set [5] (ref Ref5) was 33.9 µM. In addition, the IC50 is 0.43 µM in data set [2] (Enzyme assay, ref Ref5) and 0.347 µM in data set [7] (in vitro assay, ref Ref5, read-out: Antiviral activity IC50).
For the compound “(2R)-2-((4-Methoxyphenyl) sulfonamido)-3-methyl-N-(2-oxocyclobutyl) butanamide [Compound 8]”, the IC50 in data set [3] (setting [10]) turned out to be 13.7 µM. Also, the “Cell Survival following SARS-CoV-2 Challenge” value is on record as 32.0 in data set [1] (5 µM inhibitor concentration) and 49.1 in data set [1] (50 µM inhibitor concentration).
As to `CC(C)[C@H](NC(=O)OCc1ccccc1)C(=O)NC1CCC1=O` (stereo partly drawn) [Compound 3, Benzyl ((2S)-3-methyl-1-oxo-1-((2-oxocyclobutyl)amino)butan-2-yl) carbamate], the IC50 in data set [3] (setting [8]) was 15.1 ± 8.22 µM; in data set [3] (setting [9]), 13.1 µM. For the same compound, the entries for the “Cell Survival following SARS-CoV-2 Challenge” value in data set [1] (5 µM inhibitor concentration) and in data set [1] (50 µM inhibitor concentration) were 37.9 and 54.9, respectively.
With `O=C(N[C@@H](Cc1ccccc1)C(=O)NC1CCC1=O)OCc1ccccc1` (stereo partly drawn) [Compound 9, Benzyl ((2S)-1-oxo-1-((2-oxocyclobutyl)amino)-3-phenylpropan-2-yl) carbamate], in data set [3] (setting [8]), the IC50 was found to be 8.53 ± 5.15 µM. The “Cell Survival following SARS-CoV-2 Challenge” value stood at 41.6 in data set [1] (5 µM inhibitor concentration) and 57.5 in data set [1] (50 µM inhibitor concentration).
As for `CCN(CC)C(=S)SSC(=S)N(CC)CC` [Disulfiram], the IC50 is 0.41 µM in data set [2] (Enzyme and in vitro assay, ref Ref10); 3.18 µM in data set [7] (in vitro assay, ref Ref10, read-out: Antiviral activity IC50).
As to FPA124, the IC50 was 8.5 µM in data set [2] (Enzyme assay, ref Ref9) and 14 µM in data set [7] (ref Ref9, read-out: Antiviral activity IC50).
For the compound `O=C(N[C@@H](Cc1ccc(O)cc1)C(=O)NC1CCC1=O)OCc1ccccc1` (stereo partly drawn) [Compound 7, Benzyl ((2S)-3-(4-hydroxyphenyl)-1-oxo-1-((2-oxocyclobutyl)amino)propan-2-yl) carbamate], the “Cell Survival following SARS-CoV-2 Challenge” value in data set [1] (5 µM inhibitor concentration) was -2; in data set [1] (50 µM inhibitor concentration) it was 28.1.
For the compound Tannic acid, the IC50 in data set [2] (Enzyme assay, ref Ref5) is 1.25 µM.
With `Cc1ccc(S(=O)(=O)N[C@@H](Cc2ccccc2)C(=O)NCC2(O)CC2)cc1` [Compound 5, (S)-N-((1-hydroxycyclopropyl)methyl)-2-((4-methylphenyl)sulfonamido)-3-phenylpropanamide], the “Cell Survival following SARS-CoV-2 Challenge” value is 30.0 in data set [1] (5 µM inhibitor concentration) and 30.7 in data set [1] (50 µM inhibitor concentration).
For the compound `COc1ccc2cc1Oc1ccc(cc1)C[C@H]1c3c(cc4c(c3Oc3cc5c(cc3OC)CCN(C)[C@@H]5C2)OCO4)CCN1C` [cepharanthine], in data set [7] (read-out: IC50, anti-SARS-CoV-2 activity), the IC50 is 400 µM.
Regarding `O=C([O-])c1cc(=O)[nH]c(=O)[nH]1.O=C([O-])c1cc(=O)[nH]c(=O)[nH]1.[Zn+2]` [Zinc Orotate], in data set [2] (Enzyme assay, ref Ref5), the IC50 was 4.12 µM.
For `C=CCn1c(CSc2ccccc2[N+](=O)[O-])n[nH]c1=S` [SSYA10-001], the CC50 in data set [5] (In vitro, ref Ref4) was 80.5 µM.
Turning to `Cc1ccc(S(=O)(=O)N[C@@H](Cc2c[nH]c3ccccc23)C(=O)NC2CCC2=O)cc1` (stereo partly drawn) [Compound 4, (2S)-3-(1H-Indol-3-yl)-2-((4-methylphenyl)sulfonamido)-N-(2-oxocyclobutyl)propanamide], the IC50 in data set [3] (setting [8]) amounted to 13.2 ± 2.35 µM; in data set [3] (Severe acute respiratory syndrome coronavirus 2, read-out: IC50 Values For inhibition of SARS-CoV-2 Mediated Cell Death, Wild Type, wild-type (alpha strain, USA-WA1/2020)) it was 6.7 µM; in data set [3] (setting [10]) it was 13 µM. Moreover, in data set [4], the “toxicity / growth inhibition” value is listed as “least toxic against the Vero cell line”. Also, the “Cell Survival following SARS-CoV-2 Challenge” value in data set [1] (5 µM inhibitor concentration) amounted to 54.3; in data set [1] (50 µM inhibitor concentration), 70.9.
As for `Oc1cc(O)c2c(c1)O[C@H](c1cc(O)c(O)c(O)c1)[C@H](O)[C@H]2c1c(O)cc(O)c2c1O[C@H](c1cc(O)c(O)c(O)c1)[C@H](O)[C@H]2c1c(O)cc(O)c2c1O[C@H](c1cc(O)c(O)c(O)c1)[C@H](O)C2` [Katacine], in data set [2] (Enzyme assay, ref Ref5), the IC50 is 5.98 µM.
For the compound `O=C(N/N=C/c1cc(O)c(O)cc1O)c1cc2ccccc2cc1O` [Dyngo-4a], in data set [2] (Enzyme assay, ref Ref5), the IC50 was 0.63 µM.
For `COc1cc(C(=O)NS(=O)(=O)c2ccccc2C)ccc1Cc1cn(C)c2ccc(NC(=O)OC3CCCC3)cc12` [Zafirlukast], in data set [2] (Enzyme assay, ref Ref7), the IC50 is 16.3 µM.
With `O=C(O)CSc1cc(NS(=O)(=O)c2ccc(Br)cc2)c2ccccc2c1O` [UMI-77], the IC50 in data set [2] (Enzyme assay, ref Ref5) was 4.38 µM.
As to `CC(C)c1cc2c(c(O)c1O)[C@@]13CCCC(C)(C)[C@@H]1[C@H](OC3=O)[C@H]2O` [Rosmanol], in data set [2] (Enzyme assay, ref Ref5), the IC50 is 8.93 µM.
In the case of `Cc1ccc(S(=O)(=O)N[C@@H](Cc2ccccc2)C(=O)NCC(C)(C)O)cc1` [Compound 10, (S)-N-(2-hydroxy-2-methylpropyl)-2-((4-methylphenyl)sulfonamido)-3-phenylpropanamide], the IC50 in data set [3] (setting [8]) worked out at 6.95 ± 1.95 µM; in data set [3] (setting [9]), 6.68 µM. Also, in data set [4], the “toxicity / growth inhibition” value is recorded as “some inhibitory effect on Vero cell line growth”. In addition, the “Cell Survival following SARS-CoV-2 Challenge” value in data set [1] (5 µM inhibitor concentration) was found to be 36.7; in data set [1] (50 µM inhibitor concentration) it was 59.2.
Take `CC(C)[C@H](NC(=O)CCCCCN1C(=O)C=CC1=O)C(=O)N[C@@H](CCCNC(N)=O)C(=O)Nc1ccc(COC(=O)Oc2ccc([N+](=O)[O-])cc2)cc1` [MC-Val-Cit-PABC-PNP]: in data set [2] (Enzyme assay, ref Ref5), the IC50 is 2.45 µM.
